“Also recorded” adds a separate entry of the source. Where two headings read alike, the source gives them in different places.
What was measured:
[1] = test system: Influenza A/H1N1 (A/Ned/378/05); test: microbe, parasite or virus in culture; format: cell-based, human influenza virus; settings: read-out: Antiviral EC50 Influenza A/H1N1
[2] = test system: Respiratory syncytial virus (RSV; strain Long); format: cell-based; settings: read-out: Anti-RSV EC50, microscopic method
[3] = test system: Influenza A/H3N2 (A/HK/7/87); test: microbe, parasite or virus in culture; format: cell-based, human influenza virus; settings: read-out: Antiviral EC50 Influenza A/H3N2
[4] = test system: Respiratory syncytial virus (RSV; strain Long); test: microbe, parasite or virus in culture; format: cell-based
human coronavirus 229E = test: Antiviral assay against human coronavirus 229E in HEL cells, MTS readout; format: cell-based
in vitro [5] = settings: human
in vitro [6] = settings: African green monkey
in vitro [7] = settings: dog
in vitro [8] = settings: human; remark: listed apart in the source
[9] = test system: four mammalian cell lines
[10] = human respiratory syncytial virus, HEp-2, read-out: Antiviral EC50 RSV
[11] = Human coronavirus 229E, MTS assay, HEL cells

CC(=NNC(N)=O)c1ccc2c(c1)nc(Cc1ccc(Cl)cc1)n2CCCN(C)C
melting point: 211 to 212.5 °C

CC(=NNC(N)=S)c1ccc2c(c1)nc(Cn1nc3ccccc3n1)n2CCN(C)C
melting point: 214 to 217 °C

CC(=NNC(N)=O)c1ccc2c(c1)nc(Cn1nc3ccccc3n1)n2CCN(C)C
melting point: 209 to 212 °C

CCN(CC)CCCn1c(Cc2ccc(OC)cc2)nc2cc(C(C)=NNC(N)=S)ccc21
melting point: 180.7 to 182.9 °C

2-(1-{2-[(2H-Benzo[d][1,2,3]triazol-1-yl)methyl]-1-[3-(N,N-dimethylamino)propyl]-1H-benzo[d]imidazol-5-yl}ethylidene)hydrazine-1-carbothioamide [Compound 22]
EC50 [1]: 41 µM
EC50 [2]: 8.9 µM
EC50 [3]: > 100 µM
CC50 (HEL cells): 100 µM
CC50 (MDCK cells): > 100 µM
EC50 ([4]; read-out: Antiviral EC50 RSV): 7 µM
CC50 (Hep-2 cells): > 100 µM
CC50 (Vero cells): > 100 µM
EC50 (human coronavirus 229E): > 100 µM

2-(1-{2-[(2H-Benzo[d][1,2,3]triazol-2-yl)methyl]-1-[3-(N,N-diethylamino)propyl]-1H-benzo[d]imidazol-5-yl}ethylidene)hydrazine-1-carbothioamide [Compound 21]
Anti-RSV activity (in words) [4]: inactive

CC(=NNC(N)=S)c1ccc2c(c1)nc(Cc1ccc(Cl)cc1)n2CCCN(C)C [Compound 4, 2-{1-[2-(4-Chlorobenzyl)-1-[3-(N,N-dimethylamino)propyl]-1H-benzo[d]imidazol-5-yl]-ethylidene}hydrazine-1-carbothioamide]
melting point: 110 to 111 °C
Anti-RSV activity (in words) [4]: poorly effective; also recorded: inactive

CCN(CC)CCCn1c(Cc2ccccc2)nc2cc(C(C)=NNC(N)=S)ccc21 [Compound 8, 2-(1-{2-Benzyl-1-[3-(N,N-diethylamino)propyl]-1H-benzo[d]imidazol-5-yl}ethylidene)-hydrazine-1-carbothioamide]
EC50 ([1]; Influenza A virus, H1N1, MDCK): 38 µM
EC50 ([3]; Influenza A virus, H3N2, MDCK): > 100 µM
CC50 (in vitro [5]): > 100 µM
EC50 [4, 10]: > 100 µM
CC50 (in vitro [6]): 44 µM
CC50 (in vitro [7]): > 100 µM
CC50 (in vitro [8]): > 100 µM
EC50 (human coronavirus 229E; [11]): 56 µM

CCN(CC)CCCn1c(Cc2ccccc2)nc2cc(C(C)=NNC(N)=O)ccc21 [Compound 16, 2-(1-{1-[3-(N,N-Diethylamino)propyl]-2-benzyl-1H-benzo[d]imidazol-5-yl}ethylidene)-hydrazine-1-carboxamide]
EC50 ([1]; Influenza A virus, H1N1, MDCK): 47 µM
EC50 ([3]; Influenza A virus, H3N2, MDCK): > 100 µM
CC50 (in vitro [5]): > 100 µM
EC50 [4, 10]: > 100 µM
CC50 (in vitro [6]): > 100 µM
CC50 (in vitro [7]): > 100 µM
CC50 (in vitro [8]): > 100 µM
EC50 (human coronavirus 229E; [11]): 39 µM

CCN(CC)CCCn1c(Cc2ccc(OC)cc2)nc2cc(C(C)=NNC(N)=O)ccc21 [Compound 17, 2-(1-{1-[3-(N,N-Diethylamino)propyl]-2-(4-methoxybenzyl)-1H-benzo[d]imidazol-5-yl}-ethylidene)hydrazine-1-carboxamide]
EC50 ([1]; Influenza A virus, H1N1, MDCK): 47 µM
Cytotoxicity (in words) [9]: produced cytotoxicity in two of the four cell lines
EC50 ([3]; Influenza A virus, H3N2, MDCK): > 100 µM
melting point: 190 to 192 °C
EC50 [4, 10]: > 100 µM
CC50 (in vitro [6]): 43 µM
CC50 (in vitro [7]): > 100 µM
EC50 (human coronavirus 229E; [11]): 41 µM

CC(=NNC(N)=S)c1ccc2c(c1)nc(Cn1nc3ccccc3n1)n2CCCN(C)C [Compound 19, 2-(1-{2-[(2H-Benzo[d][1,2,3]triazol-2-yl)methyl]-1-[3-(N,N-dimethylamino)propyl]-1H-benzo[d]imidazol-5-yl}ethylidene)hydrazine-1-carbothioamide]
melting point: 212 to 214 °C
Anti-RSV activity (in words) [4]: inactive

NC(=O)c1ncn([C@@H]2O[C@H](CO)[C@@H](O)[C@H]2O)n1 [Ribavirin, reference compound]
EC50 ([1]; Influenza A virus, H1N1, MDCK): 7.4 µM
EC50 ([3]; Influenza A virus, H3N2, MDCK): 7.5 µM
EC50 [4, 10]: 6.7 µM
CC50 (in vitro [6]): > 250 µM
CC50 (in vitro [8]): > 250 µM

CC(=O)N[C@H]1[C@H]([C@H](O)[C@H](O)CO)OC(C(=O)O)=C[C@@H]1N=C(N)N [Zanamivir, reference compound]
EC50 ([1]; Influenza A virus, H1N1, MDCK): 0.6 µM
EC50 ([3]; Influenza A virus, H3N2, MDCK): 31 µM
CC50 (in vitro [7]): > 100 µM

dextran sulfate MW 10,000 [DS-10,000, reference compound]
Antiviral EC50 RSV [4]: 0.01 µg/mL

B1: UDA: UDA lectin, reference in the coronavirus 229E assay (protein, UniProt P11218 24-372, looked up)
Lectin/endochitinase 1: QRCGSQGGGGTCPALWCCSIWGWCGDSEPYCGRTCENKCWSGERSDHRCGAAVGNPPCGQDRCCSVHGWCGGGNDYCSGSKCQYRCSSSVRGPRVALSGNSTANSIGNVVVTEPLFDQMFSHRKDCPSQGFYSYHSFLVAAESFPAFGTIGDVATRKREVAAFLAHISQATSGERSDVENPHAWGLCHINTTTVTENDFCTSSDWPCAAGKKYSPRGPIQLTHNFNYGLAGQAIGEDLIQNPDLVEKDPIISFKTALWFWMSQHDNKPSCHDIVLNANSAANRIPNKGVIGNIISRAFGHDDFAVRSSSIGFYKRYCDMLGVSYGHDLKYWFDNTPSSEFQRIQMRVAA
CC50 HEL (HEL cells): >100 µg/mL
Antiviral EC50 Coronavirus 229E (human coronavirus 229E): 2.2 µg/mL

From paper PMC7180491, “Synthesis and Biological Evaluation of Novel (thio)semicarbazone-Based Benzimidazoles as Antiviral Agents against Human Respiratory Viruses” (Molecules, 2020)
